Assay results published in ChEMBL document CHEMBL5331042, “Azole inhibitors of mushroom and human tyrosinases: Current advances and prospects of drug development for melanogenic dermatological disorders” (Eur J Med Chem, 2022).

Legend:
[1] = molecular target: T1, Mushroom tyrosinase (Agaricus bisporus, UniProt O42713+Q00024+C7FF04+C7FF05); assay: Inhibition of mushroom tyrosinase using L-DOPA as substrate preincubated for 20 mins followed by substrate addition by absorbance based analysis
[2] = Cytotoxicity against mouse B16-F10 cells assessed as inhibition of cell growth at 8 uM measured after 24 hrs by MTT assay relative to control; format: toxicity, cell-based
[3] = molecular target: T1, Mushroom tyrosinase; assay: Inhibition of mushroom tyrosinase using L-DOPA as substrate preincubated for 10 mins followed by substrate addition by absorbance based analysis
[4] = molecular target: T1, Mushroom tyrosinase; assay: Binding affinity to mushroom tyrosinase assessed as inhibition constant using L-DOPA as substrate preincubated for 10 mins followed by substrate addition by absorbance based analysis
[5] = molecular target: T2, Tyrosinase (Homo sapiens, UniProt P14679); assay: Inhibition of human His-tagged tyrosinase CD expressed in HEK293 cells assessed as inhibition of melanin production using L-DOPA as substrate; format: cell-based
T2 sequence (P14679 whole entry): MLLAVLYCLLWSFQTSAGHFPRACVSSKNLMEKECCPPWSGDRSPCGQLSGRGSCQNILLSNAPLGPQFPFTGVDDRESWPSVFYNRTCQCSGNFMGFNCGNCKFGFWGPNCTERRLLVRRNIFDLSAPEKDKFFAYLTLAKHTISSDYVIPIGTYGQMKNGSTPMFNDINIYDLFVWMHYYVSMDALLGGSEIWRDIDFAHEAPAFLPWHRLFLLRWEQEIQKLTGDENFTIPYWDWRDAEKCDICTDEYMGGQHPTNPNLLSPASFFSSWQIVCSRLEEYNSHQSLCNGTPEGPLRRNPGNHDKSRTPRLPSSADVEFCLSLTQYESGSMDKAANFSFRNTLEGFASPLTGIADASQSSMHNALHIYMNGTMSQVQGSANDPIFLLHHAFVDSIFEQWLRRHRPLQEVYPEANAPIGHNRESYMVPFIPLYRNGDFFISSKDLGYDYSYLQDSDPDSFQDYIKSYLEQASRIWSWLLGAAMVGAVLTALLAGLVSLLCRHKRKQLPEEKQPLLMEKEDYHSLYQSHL

[6] = molecular target: T1, Mushroom tyrosinase; assay: Inhibition of mushroom tyrosinase using L-DOPA as substrate preincubated for 10 mins followed by substrate addition and measured after 20 mins
[7] = molecular target: T1, Mushroom tyrosinase; assay: Binding affinity to mushroom tyrosinase assessed as inhibition constant using L-DOPA as substrate preincubated for 10 mins followed by substrate addition and measured after 20 mins
[8] = Cytotoxicity against mouse B16-F10 cells assessed as inhibition of cell growth upto 20 uM measured after 24 hrs by absorbance based assay relative to control; format: toxicity
[9] = molecular target: Mushroom tyrosinase (Agaricus bisporus) (UniProt O42713+Q00024+C7FF04+C7FF05); assay: Inhibition of mushroom tyrosinase transfected in mouse B16-F10 cells at 25 uM using L-tyrosine as substrate relative to control; format: cell-based
[10] = molecular target: T1, Mushroom tyrosinase; assay: Inhibition of mushroom tyrosinase
[11] = Cytotoxicity against mouse B16-F10 cells assessed as inhibition of cell growth measured after 48 hrs by MTT assay; format: toxicity, cell-based
[12] = molecular target: T1, Mushroom tyrosinase; assay: Inhibition of mushroom tyrosinase using L-DOPA as substrate preincubated for 10 mins followed by substrate addition and measured after 20 mins by absorbance based analysis
[13] = molecular target: T1, Mushroom tyrosinase; assay: Inhibition of mushroom tyrosinase using L-tyrosine as substrate preincubated for 20 mins followed by substrate addition by absorbance based analysis
[14] = molecular target: T1, Mushroom tyrosinase; assay: Binding affinity to mushroom tyrosinase assessed as inhibition constant incubated for 10 mins by spectrophotometric analysis
[15] = molecular target: T1, Mushroom tyrosinase; assay: Inhibition of mushroom tyrosinase incubated for 10 mins by spectrophotometric analysis
[16] = molecular target: T2, Tyrosinase; assay: Inhibition of human tyrosinase using L-DOPA as substrate incubated for 10 to 20 mins by MBTH dye based assay

Structure (SMILES): NC(=S)N/N=C/c1ccc(OCc2cn(CC(=O)Nc3ccc(Cl)cc3)nn2)cc1
- IC50 [1]: 0.14 µM
- inhibition at 24 h, 8 µM [2]: 69.6%

Structure (SMILES): COc1cc(/C=N/c2nnc(S)s2)ccc1O
- IC50 [3]: 0.036 µM
- Ki [4]: 0.038 µM

Structure (SMILES): C[C@@H](O)CCc1ccc(O)cc1
- IC50 [5]: 1200 µM

Structure (SMILES): COc1ccccc1-n1c(SCC(=O)Nc2ccc(Br)cc2)nnc1-c1ccccc1
- IC50 [6]: 0.0048 µM
- Ki [7]: 0.007 µM

Structure (SMILES): O=C1/C(=C/c2ccccc2O)OC(=S)N1c1ccccc1
- inhibition at 24 h, up to 20 µM [8]: ~65%
- inhibition [9]: 65%
- IC50 [10]: 11.18 µM

Structure (SMILES): Oc1ccc(O)cc1 [HYDROQUINONE]
- IC50 [5]: 15 µM

Structure (SMILES): Oc1ccc(/C=N/c2nnc(S)s2)c(O)c1
- IC50 [3]: 0.25 µM
- Ki [4]: 0.075 µM

Structure (SMILES): O=C1C=C(Cn2cc(COc3cccc4ccccc34)nn2)C(=O)C=C1O
- IC50 at 48 h [11]: 65 µM
- IC50 [12]: 0.06 µM

Structure (SMILES): O=C1OC(c2ccccc2Br)=NC(=S)C1c1nn[nH]n1 (configuration not stated)
- IC50 [12]: 0.037 µM
- Ki [7]: 0.0003 µM

Structure (SMILES): NC(=S)N/N=C/c1ccc(OCc2cn(CC(=O)NCc3ccccc3)nn2)cc1
- IC50 [1]: 0.17 µM
- inhibition at 24 h, 8 µM [2]: 39.8%
- IC50 [13]: 0.25 µM

Structure (SMILES): CCCCc1ccc(O)cc1O [RUCINOL]
- IC50 [5]: 13.5 µM

Structure (SMILES): CCCCCn1nc(-c2ccccc2)n(CC(=O)NNC(=O)Nc2ccccc2C(F)(F)F)c1=O
- Ki [14]: 0.012 µM
- IC50 [15]: 0.00166 µM

Structure (SMILES): COc1cc(C2CC(c3cc4ccccc4oc3=O)=NN2c2nc(-c3ccc(Br)cc3)cs2)ccc1OCc1ccccc1 (configuration not stated)
- IC50 [3]: 0.00458 µM
- Ki [4]: 0.0086 µM

Structure (SMILES): O=C1C=C(Cn2cc(COc3ccc4ccccc4c3)nn2)C(=O)C=C1O
- IC50 at 48 h [11]: 67.5 µM
- IC50 [12]: 0.3 µM

Structure (SMILES): O=c1cc(CO)occ1O [KOJIC ACID]
- inhibition at 24 h, 8 µM [2]: 94%

Structure (SMILES): O=C1/C(=C/c2ccc(O)cc2O)OC(=S)N1c1ccccc1
- inhibition at 24 h, up to 20 µM [8]: ~55%
- inhibition [9]: 55%
- IC50 [10]: 4.7 µM

Structure (SMILES): CCCCCn1nc(-c2ccccc2)n(CC(=O)NNC(=S)Nc2ccccc2C(F)(F)F)c1=O
- Ki [14]: 0.122 µM
- IC50 [15]: 5.62 µM

Structure (SMILES): NC(=S)N/N=C/c1ccc(OCc2cn(CC(=O)Nc3cccc(Br)c3)nn2)cc1
- IC50 [1]: 0.21 µM
- inhibition at 24 h, 8 µM [2]: ≤ 70%

Structure (SMILES): CC(C)C(=O)Nc1nc(-c2ccc(O)cc2O)cs1
- IC50 [16]: 1.4 µM
- IC50 [5]: 0.9 µM
